Test results: patent EP1064284B1, “HYPNOTIC BETA-CARBOLINE DERIVATIVES, PROCESS FOR THEIR PREPARATION AND THEIR USE AS MEDICINAL PRODUCTS” (priority 1998, dated 1999)
“Also recorded” adds a separate entry of the source. Where two headings read alike, the source gives them in different places.

Legend:
[1] = Absolute oral bioavailability (oral/IV) in Beagle dogs; type: in vivo
[2] = Stability in acidic medium (hydrolysis of cycle A in pH buffers, HPLC); type: physicochemical; conditions: for Hydrolysis rate (%) pH=1: pH=1 buffer; for Hydrolysis rate (%) pH=1 / Hydrolysis rate (%) pH=2 / Hydrolysis rate (%) pH=3 / Hydrolysis rate (%) pH=7 (reference): 30 µM in 5 ml, stirred 15 minutes at 37°C; for Hydrolysis rate (%) pH=2: pH=2 buffer; for Hydrolysis rate (%) pH=3: pH=3 buffer; for Hydrolysis rate (%) pH=7 (reference): pH=7 (reference) buffer
Procedure: In order to study the influence of R8 group on the stability of cycle A when comparing compounds EXAMPLE A and EXAMPLE B (R8 = hydrogen atom) to compounds of Example 1, Example 4, Example 7, Example 8 and Example 11, 30 µM of each of these compounds were dissolved into 5 ml of pH=1 or pH=2 or pH=3 or pH=7 (reference) buffer. Solutions were stirred for 15 minutes at 37°C. Subsequent measurements of compounds amounts non hydrolyzed were measured using a high performance liquid chromatography method. [drawing 18] Table I :
Compounds n°1, 4, 7, 8 and 11 are quite stable from pH=2, since less than 27 per cent of these compounds are hydrolysed at pH≥2.

Beagle dogs = experiment: Hypnotic activity: effects on wakefulness / sleep states in Beagle dogs (EEG/EMG/EOG polygraph); type: in vivo; conditions: for Mean (± S.D.) duration of stages in 8 dogs (minutes) REM / Mean (± S.D.) latencies after administration (minutes) REM / Mean (± S.D.) duration of stages in 8 dogs (minutes) Drowsy / Mean (± S.D.) duration of stages in 8 dogs (minutes) SWS / Mean (± S.D.) duration of stages in 8 dogs (minutes) Sleep / Mean (± S.D.) duration of stages in 8 dogs (minutes) Wake / Mean (± S.D.) latencies after administration (minutes) Drowsy / Mean (± S.D.) latencies after administration (minutes) SWS: 120 minutes observation; for hypnotic effect in Beagle dogs (in words): oral
Procedure: Beagle dogs are kept in a metal cage, connected to 2 Schwartzer ED 24 Polygraph equipped with BRAINLAB® software, through a flexible cable. Test and control products are administered via the oral or intravenous routes by means of gastric tubes. Records are scored in 30 seconds epochs for active wake, drowsy, slow wave sleep (light sleep + deep sleep) and REM sleep. These criteria are according to SHELTON et al.( in SHELTON J., NISHINO S., VAUGHT J., DEMENT W.C. and MIGNOT E. Comparative effects of modafinil and amphetamine on daytime sleepiness and cataplexy of narcoleptic dogs. Sleep 19(1); 29-38, 1996.), based upon frequency and amplitude patterns of EEG cortical tracing (fronto-frontal), EMG (upper neck muscles) and EOG (bilateral). Behaviour is also continuously monitored for each observation period of 120 minutes. Prior acclimatisation of the dogs take 5 days; and, to mimic similar stress caused by gastric tubing, a mixture water/PEG (50/50; V/V) was administered orally together with intravenous boluses. • Wake : includes all episodes with low voltage mixed frequency tracing in which the EMG is not inhibited. […] Synchronous waves at 4 - 7 Hz and 50 - 100 µV appear on a background of low voltage fast-wave activity. […] EEG patterns are of higher amplitude than in the previous stage and sleep spindles ( 10 - 14 Hz) and / or K complexes must be present in light sleep, as EOG show slow eye movements or no movement. Deep sleep is scored when slow delta waves (< 4 Hz) constitute 20 p. cent of an epoch or more during deep sleep. • REM : rapid eye movement sleep is scored when dogs lay down, eyes closed with intermittent apparent fast muscle twitches. A low voltage mixed frequency EEG tracing is observed together with rapid eye movements and a drop in EMG activity.
Repartition and duration of wakefulness / sleep states in Beagle dogs have been measured after oral (and intravenous route for compoundof EXAMPLE 1) administrations of Placebo (vehicle = 10 ml of mixture ethanol / PEG 400 / water; 10 / 40 /50; V/V/V) compounds of Example 1, Example 4 and Example 7.
Results are presented in Tables II and III as Durations and Latencies of each stage.

[3] = dog, in vivo, Beagle dogs, fasting conditions, oral relative to intravenous route, read-out: Absolute bioavailability oral/IV in Beagle dogs (fasting conditions) 1 < gastric pH < 2

Row | SMILES | Hydrolysis rate (%) pH=1 [2] [%] | Hydrolysis rate (%) pH=2 [2] [%] | Hydrolysis rate (%) pH=3 [2] [%] | Hydrolysis rate (%) pH=7 (reference) [2] [%] | bioavailability ([1]; beagle, dog, in vivo) [%] | hypnotic effect in Beagle dogs (in words) (Beagle dogs) | per cent of compounds hydrolysed at pH≥2 [2] | other results
1 | COc1ccc2[nH]c3c(c2c1)CCN1C(=O)CCC=C31 [EXAMPLE A, reference compound] | 100 | 100 | 100 | 0 | – | – | – | bioavailability [1, 3]: < 1%; hydrolysis between pH=1 and pH=3 (in words) [2]: totally hydrolyzed
2 | COc1ccc2[nH]c3c(c2c1)CCN1C(=O)CCCC31 (stereo not shown) [EXAMPLE B, reference compound] | 95 | 95 | 90 | 0 | – | – | – | Absolute bioavailability oral/IV in Beagle dogs (fasting conditions) 1 < gastric pH < 2 ([1]; Beagle dogs, fasting conditions, oral relative to intravenous route): <5%; bioavailability [1, 3]: < 5%; hydrolysis between pH=1 and pH=3 (in words) [2]: totally hydrolyzed
3 | CCC1=C2c3[nH]c4ccc(OC)cc4c3CCN2C(=O)CC1 [Example 1, 9-methoxy-1-ethyl-2,3,4,6,7,12-hexahydroindolo [2,3-a] quinolizin-4-one] | 79.5 | 14.5 | 8.7 | 0 | > 35 | significant hypnotic effect; also recorded: potent hypnotic activity | less than 27 per cent | Absolute bioavailability oral/IV in Beagle dogs (fasting conditions) 1 < gastric pH < 2 ([1]; beagle, dog, in vivo): >35%; Mean (± S.D.) duration of stages in 8 dogs (minutes) REM (Beagle dogs; 2.5 µmol/Kg IV): 3.8 (3.9) minutes; Mean (± S.D.) latencies after administration (minutes) REM (Beagle dogs; 2.5 µmol/Kg IV): 79.9 (25.4) minutes; Mean (± S.D.) duration of stages in 8 dogs (minutes) REM (Beagle dogs; 2.5 µmol/Kg oral): 3.3 (3.4) minutes; Mean (± S.D.) latencies after administration (minutes) REM (Beagle dogs; 2.5 µmol/Kg oral): 82.9 (32.8) minutes; Mean (± S.D.) duration of stages in 8 dogs (minutes) REM (Beagle dogs; 5 µmol/Kg oral, Table II): 3.1 (3.7) minutes; Mean (± S.D.) latencies after administration (minutes) REM (Beagle dogs; 5 µmol/Kg oral, Table II): 79.3 (33.3) minutes; Mean (± S.D.) duration of stages in 8 dogs (minutes) REM (Beagle dogs; 10 µmol/Kg oral, Table II): 2.4 (3.5) minutes; Mean (± S.D.) latencies after administration (minutes) REM (Beagle dogs; 10 µmol/Kg oral, Table II): 101.9 (27.3) minutes
4 | COc1ccc2[nH]c3c(c2c1)CCN1C(=O)CCC(c2ccccc2)=C31 [Example 4, 9-methoxy-1-phenyl-2,3,4,6,7,12-hexahydroindolo[2,3-a] quinolizin-4-one] | 0 | 0 | 0 | 0 | > 20 | significant hypnotic effect; also recorded: potent hypnotic activity | less than 27 per cent | Absolute bioavailability oral/IV in Beagle dogs (fasting conditions) 1 < gastric pH < 2 ([1]; beagle, dog, in vivo): >20%; Mean (± S.D.) duration of stages in 8 dogs (minutes) Drowsy (Beagle dogs; 10 µmol/Kg oral, Table III): 10.4 (3.9) minutes; Mean (± S.D.) duration of stages in 8 dogs (minutes) REM (Beagle dogs; 10 µmol/Kg oral, Table III): 4.4 (4.5) minutes; Mean (± S.D.) duration of stages in 8 dogs (minutes) SWS (Beagle dogs; 10 µmol/Kg oral, Table III): 31.5 (17.6) minutes; Mean (± S.D.) duration of stages in 8 dogs (minutes) Sleep (Beagle dogs; 10 µmol/Kg oral, Table III): 46.3 (21.3) minutes; Mean (± S.D.) duration of stages in 8 dogs (minutes) Wake (Beagle dogs; 10 µmol/Kg oral, Table III): 73.8 (21.3) minutes; Mean (± S.D.) latencies after administration (minutes) Drowsy (Beagle dogs; 10 µmol/Kg oral, Table III): 50.4 (19.8) minutes; Mean (± S.D.) latencies after administration (minutes) REM (Beagle dogs; 10 µmol/Kg oral, Table III): 93.1 (26.3) minutes; Mean (± S.D.) latencies after administration (minutes) SWS (Beagle dogs; 10 µmol/Kg oral, Table III): 58.1 (27.0) minutes
5 | CCC1=C2c3[nH]c4ccc(OC)cc4c3CCN2C(=S)CC1 [Example 7, 9-methoxy-1-ethyl-2,3,4,6,7,12-hexahydroindolo[2,3-a] quinolizine-4-thione] | 17.0 | 13.0 | 5.4 | 0 | – | significant hypnotic effect; also recorded: potent hypnotic activity | less than 27 per cent | Mean (± S.D.) duration of stages in 8 dogs (minutes) Drowsy (Beagle dogs; 5.0 µmol/Kg oral, Table III): 13.0 (8.6) minutes; Mean (± S.D.) duration of stages in 8 dogs (minutes) REM (Beagle dogs; 5.0 µmol/Kg oral, Table III): 4.4 (6.1) minutes; Mean (± S.D.) duration of stages in 8 dogs (minutes) SWS (Beagle dogs; 5.0 µmol/Kg oral, Table III): 18.9 (14.7) minutes; Mean (± S.D.) duration of stages in 8 dogs (minutes) Sleep (Beagle dogs; 5.0 µmol/Kg oral, Table III): 35.1 (25.8) minutes; Mean (± S.D.) duration of stages in 8 dogs (minutes) Wake (Beagle dogs; 5.0 µmol/Kg oral, Table III): 83.7 (25.1) minutes; Mean (± S.D.) latencies after administration (minutes) Drowsy (Beagle dogs; 5.0 µmol/Kg oral, Table III): 59.0 (20.0) minutes; Mean (± S.D.) latencies after administration (minutes) REM (Beagle dogs; 5.0 µmol/Kg oral, Table III): 91.1 (28.1) minutes; Mean (± S.D.) latencies after administration (minutes) SWS (Beagle dogs; 5.0 µmol/Kg oral, Table III): 74.1 (26.3) minutes
6 | CCC1CCC(=O)N2CCc3c([nH]c4ccc(OC)cc34)C12 (stereo not shown) [Example 8, 9-methoxy-1-ethyl-1,2,3,4,6,7,12,12b-octahydroindolo [2,3-a] quinolizin-4-one] | 0 | 0 | 0 | 0 | 100 | – | less than 27 per cent | –
7 | COc1ccc2[nH]c3c(c2c1)CCN1C(=S)CCC(c2ccccc2)=C31 [Example 11, 9-methoxy-1-phenyl-2,3,4,6,7,12-hexahydroindolo [2,3-a] [beta]quinolizin 4-thione] | 26.0 | 27.0 | 30.0 | 0 | – | – | less than 27 per cent | –
